The test system of one assay is human PDAC organoids. The assay can be described thus: Organoid apoptosis assay (caspase 3/7) with GEM or 5-FU. The assay is classed as cell-based. The protocol:
The organoids were isolated from Matrigel using collagenase, and seed Matrigel coated 96 well plate, and then treated with control (PBS) or GEM, or control (DMSO) or 5-FU, followed by assaying organoid apoptosis using fluorescent caspase 3/7 and live-cell time lapse imaging for 24 hr. At the start of coculture, a green-fluorescent caspase 3/7 probe reagent (R37111, Invitrogen) and Hoechst (135102, Invitrogen) was added to visualize cells undergoing apoptosis. Apoptotic organoids were monitored by time lapse imaging using BZ-X800 fluorescence microscope (KEYENCE) and quantified using BZ-X800 analyzer (ver. 1.1.1.8, KEYENCE). […] Synergy scores were calculated by Synergyfinder ver 2 (synergyfinder.fimm.fi/) (Ianevski et al., Nucleic Acids Res. 48 IW1), […]-[…] (2020)).

In a further assay the test system is PDAC tumors in GDA mice. The assay can be described thus: KPC mouse-derived orthotopic allograft (GDA) mouse model. The assay is classed as in vivo. The protocol: 2) the KPC Genetically engineered mouse-derived orthotopic allografts (GDA) mouse model (Hingorani et al., Cancer Cell 7, 469-483 (2005); Li et al., Comput Struct Biotechnol J 17, 498-506 (2019)). Mouse PDAC cells were established from KPC mouse pancreatic tumor tissues, followed by orthotopically injecting 1×10^6 mouse PDAC cells in 50 μL Matrigel (356231, Coaning) into the pancreas of female 8 week-old syngeneic immunocompetent C57BL/6 mice (Jackson Laboratories). 3) PDAC Patient-derived Tumor orthotopic xenografted (PDTX) mouse model (Gilles et al., Clin Cancer Res 24, 1734-1747 (2018); Rubio-Viqueira et al., Clin Cancer Res 12, 4652-4661 (2006)). PDAC PDX tumors were obtained from Dr. Muthuswamy and Dr. Hidalgo and divided into 4×2 mm pieces, followed by xenografting orthotopically into the pancreas of female 8-week-old immunodeficient NOD.Cg-Prkdc^scid Il12rg^tm1Wjl/SzJ (NOD scid gamma; NSG) mice (Jackson Laboratories). 4) PDAC Patient-derived Organoid and CAFs orthotopic xenograft (PDOX) mouse model (Dantes et al., JCI Insight 5, 137809 (2020); (Koikawa et al., Cancer letters 425, 65-77 (2018)). 5×10^4 patient derived PDAC organoids and 5×10^4 patient derived CAFs in 50 μL of Matrigel were injected orthotopically into the pancreas of female 8 week-old immunodeficient NSG mice (Jackson Laboratories).
Briefly, all mice were randomly selected to receive treatments groups. Tumor sizes were measured by weekly palpation with electronic caliper or ultrasound, and when tumors were reached >0.5 cm, the treatment was started. Briefly, animals were placed under general anesthesia with 2%-3% isoflurane once a week. Under general anesthesia, the abdominal wall became very flaccid, and the muscle tone of the mouse was very low. The mouse was scuffed with the left hand to allow for palpation and measurement with the right hand. This allowed to detect the firm pancreatic mass by palpation, and to determine its size by electronic caliper measurements. […] In the transgenic KPC mice, where spontaneous tumor development was expected, weekly palpation was started from age 8 weeks. When the tumor by palpation after age 12 weeks could not be detected, the mice were monitored by ultrasound. Once the maximum length >0.5 cm tumor was detected, the mice were randomized to treatment, and then followed tumor growth by electronic caliper measurement. To validate the external caliper measurements, the tumor size was measured prior to euthanization of the mice and then measured the actual tumor size upon necropsy to ascertain concordance. […] To evaluate the effects of CD8+ T cell or NK1.1′ cell depletion in GDA mice, mice were treated with anti-CD8 (200 μg, i.p., twice a week, BE0117, BioXcell) (Pantelidou et al., Cancer Discov. 9, 722-37 (2019)) or anti-NK1.1 (25 μg, i.p., twice a week, BE0036, BioXcell) (Waggoner et al., Nature 481, 394-398 (2011)), or vehicle (IgG isotype control), and/or Sulfopin (40 mg/kg, i.p., every day) (Pin1i−2) or vehicle (Sulfopin diluted solution; 5% NMP, 5% Solutol, 20% DMSO), and/or anti-PD1 (200 μg, i.p., every 3-4 days, BE0146, BioXcell) or vehicle (IgG isotype control). To test Sulfopin and/or PTX and/or anti-CTLA4 combination treatment in GDA mice, mice were treated with Sulfopin (40 mg/kg, i.p., every day) (Pin1i−2) or vehicle (Sulfopin diluted solution; 5% NMP, 5% Solutol, 20% DMSO), and/or PTX (10 mg/kg i.p., weekly) or vehicle (PTX diluted solution; 10% DMSO, 40% PEG300, 5% Tween 80, 45% Saline), and/or anti-CTLA-4 (250 μg, i.p., every 3-4 days, BE0032, BioXcell) or vehicle (IgG isotype control).

Setting [1] is: GDA mice, FIG. 9A, GEM 20 mg/kg, n=6, vehicle 34 days.

Consider `CC(C)(C)CN(C(=O)CCl)C1CCS(=O)(=O)C1` (stereo not shown) [Pin1i−2, sulfopin], for which the “apoptosis in WT organoids” value with human PDAC organoids (Pin1i−2 at 5 μM 3 days, then GEM at 25 nM for 24 hrs) is on record as “induced apoptosis in WT organoids”. Further, in the assay on human PDAC organoids (pre-treated with Pin1i−1 at 10 μM or Pin1i−2 at 5 μM for 72 hrs, then GEM at 25 nM for 24 hrs), the GEM-mediated organoid apoptosis result was “greatly potentiated GEM-mediated organoid apoptosis”. For the same compound, in the assay on PDAC tumors in GDA mice (GDA mice), the “desmoplastic (fibrotic) and immunosuppressive TME” value was “potently reduce the fibrotic TME”. In the assay with PDAC tumors in GDA mice (GDA mice, 4 weeks), the “CAF activation (IF for αSMA or PDGFRα)” value was “significantly reduced” and the “collagen deposition (Sirius Red staining)” value is recorded as “significantly reduced”. Also, the Median survival with PDAC tumors in GDA mice (setting [1]) is given as 56 days. The Median survival in the assay with PDAC tumors in GDA mice (GDA mice, FIG. 9I, treated up to 150 days, GEM 10 mg/kg weekly, αPD1, n=8, vehicle 36.5 days) is given as 54 days. Moreover, the tumor growth entry in the assay with PDAC tumors in GDA mice (overt tumor-bearing GDA mice) is recorded as “significantly reduced tumor growth”.

As to `Nc1ccn([C@@H]2O[C@H](CO)[C@@H](O)C2(F)F)c(=O)n1` [GEM, gemcitabine, reference compound], the “organoid apoptosis, agent alone” value in the assay with human PDAC organoids (GEM at 25 nM for 24 hrs) is listed as “neither Pin1i nor GEM alone had obvious effect”. Moreover, the Median survival in the assay on PDAC tumors in GDA mice (setting [1]) turned out to be 42 days.
